Results on two compounds are retold here after US4409233A, “Highly concentrated preparations of dopa compounds” (Sankyo Company, Limited, priority 1978, dated 1983).

Converted amounts (≈) assume the structure as drawn.

For data set [1] the following is noted: cited from earlier work.
The nature of data set [2]: Solubility of dopa compounds in water. The settings on record: 50 mg of dopa. Format: physicochemical.

Regarding `NC(Cc1ccc(O)c(O)c1)C(=O)O` (stereo not drawn) [dopa, β-(3,4-dihydroxyphenyl)-α-alanine], in data set [1], the solubility in water was 2500 µg/mL (≈ 12.7 mM) and the “solubility in water (in words)” value is given as “poor solubility in water”. Further, the “volume of water necessary to dissolve the minimal dose of dopa” value in data set [2] is 20 mL.
Regarding `C[C@](N)(Cc1ccc(O)c(O)c1)C(=O)O` [methyldopa, L-3-(3,4-dihydroxyphenyl)-2-methylalanine], the “solubility in water (in words)” value in data set [1] was “poor solubility in water”.
